In general, IC50 refers to the concentration at which inhibition is half-maximal.

In one series the target is T1, α4β1 (Homo sapiens, UniProt P05556+P13612, DEL729-798).
T1 construct: purchased R&D Systems 5668-A4
Nature of the series: α4β1-VCAM Competition ELISA. Format: binding. The settings on record: Table 4-B; read-out: ELISA_α4β1 IC50. The essentials: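 ELISA plates were coated with VCAM-1 Fc at 400 ng/well. Peptide dilutions (highest final 100 μM) and 60 nM α4β1 were incubated 2 h at 37 °C in pH 7.6 Tris buffer containing 1 mM Mn2+ or Mg2+. Integrin retained on the plate was detected by 9F10 antibody, then HRP secondary, with TMB absorbance at 450 nm.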
In general terms: An ELISA detects its analyte on a solid surface through an enzyme-linked reagent.

A short description of series [1]: Simulated Intestinal Fluid (SIF) Stability Assay. Type of series: in vitro ADME, porcine. The settings on record: t1/2; for half-life at 22 μM: pig, simulated intestinal fluid (SIF) with 1% porcine pancreatin, pH 6.5, Table 4-C, > means assay stopped at that time, read-out: SIF (porcine) Min. In short, it runs like this: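 Intestinal stability: percent peptide remaining over time, by LC-MS/MS peak-area ratio to internal standard, fitted to first-order decay for half-life. Conditions: 22 μM peptide, 1% pancreatin in pH 6.5 blank FASSIF, 37 °C.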

In another series the target is α4β7 (Homo sapiens, UniProt P13612+P26010). The series is described as follows: α4β7-MAdCAM Cell Adhesion Assay (RPMI 8866 human cells). Also noted: host or cells: RPMI 8866 human B lymphoblastoid cells. Format: cell-based. The settings on record: Table 4-B; read-out: Cell Adhesion α4β7 IC50. In short, it runs like this: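 Adhesion read-out: MTT absorbance at 570 nm minus no-cell wells, after three washes. Plates coated with rh MAdCAM-1/Fc received peptide dilutions plus 200,000 RPMI 8866 cells in Mn2+ (1 mM)-supplemented DMEM, 0.1% BSA, HEPES pH 7, incubated 30-45 min, 37 °C.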
α4β7, sequence (P13612 34-1032): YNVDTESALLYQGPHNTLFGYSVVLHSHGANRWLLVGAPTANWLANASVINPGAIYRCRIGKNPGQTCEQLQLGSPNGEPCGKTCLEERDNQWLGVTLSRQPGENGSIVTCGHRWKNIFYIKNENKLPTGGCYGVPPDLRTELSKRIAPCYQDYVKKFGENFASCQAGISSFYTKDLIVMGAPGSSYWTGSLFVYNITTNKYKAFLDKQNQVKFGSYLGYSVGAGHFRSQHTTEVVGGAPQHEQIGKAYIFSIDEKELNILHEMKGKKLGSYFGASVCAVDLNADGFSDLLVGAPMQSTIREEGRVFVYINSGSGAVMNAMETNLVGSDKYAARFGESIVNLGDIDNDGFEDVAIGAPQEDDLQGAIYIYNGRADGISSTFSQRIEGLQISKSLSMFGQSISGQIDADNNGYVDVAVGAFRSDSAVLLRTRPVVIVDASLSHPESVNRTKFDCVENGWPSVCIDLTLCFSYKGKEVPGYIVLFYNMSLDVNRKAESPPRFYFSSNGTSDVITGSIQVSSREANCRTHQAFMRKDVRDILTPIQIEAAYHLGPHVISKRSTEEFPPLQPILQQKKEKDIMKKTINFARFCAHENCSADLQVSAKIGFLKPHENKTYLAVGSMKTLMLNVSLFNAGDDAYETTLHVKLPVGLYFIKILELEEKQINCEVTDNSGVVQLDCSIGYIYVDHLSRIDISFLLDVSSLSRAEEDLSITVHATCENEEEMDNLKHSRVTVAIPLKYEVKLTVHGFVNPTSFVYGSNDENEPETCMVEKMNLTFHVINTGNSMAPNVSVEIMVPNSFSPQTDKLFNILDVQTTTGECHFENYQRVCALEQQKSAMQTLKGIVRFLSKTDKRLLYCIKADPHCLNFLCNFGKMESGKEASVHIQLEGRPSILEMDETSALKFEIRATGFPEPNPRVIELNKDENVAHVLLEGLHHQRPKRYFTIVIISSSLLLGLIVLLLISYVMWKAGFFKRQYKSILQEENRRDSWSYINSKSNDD
α4β7, sequence (P26010 20-798): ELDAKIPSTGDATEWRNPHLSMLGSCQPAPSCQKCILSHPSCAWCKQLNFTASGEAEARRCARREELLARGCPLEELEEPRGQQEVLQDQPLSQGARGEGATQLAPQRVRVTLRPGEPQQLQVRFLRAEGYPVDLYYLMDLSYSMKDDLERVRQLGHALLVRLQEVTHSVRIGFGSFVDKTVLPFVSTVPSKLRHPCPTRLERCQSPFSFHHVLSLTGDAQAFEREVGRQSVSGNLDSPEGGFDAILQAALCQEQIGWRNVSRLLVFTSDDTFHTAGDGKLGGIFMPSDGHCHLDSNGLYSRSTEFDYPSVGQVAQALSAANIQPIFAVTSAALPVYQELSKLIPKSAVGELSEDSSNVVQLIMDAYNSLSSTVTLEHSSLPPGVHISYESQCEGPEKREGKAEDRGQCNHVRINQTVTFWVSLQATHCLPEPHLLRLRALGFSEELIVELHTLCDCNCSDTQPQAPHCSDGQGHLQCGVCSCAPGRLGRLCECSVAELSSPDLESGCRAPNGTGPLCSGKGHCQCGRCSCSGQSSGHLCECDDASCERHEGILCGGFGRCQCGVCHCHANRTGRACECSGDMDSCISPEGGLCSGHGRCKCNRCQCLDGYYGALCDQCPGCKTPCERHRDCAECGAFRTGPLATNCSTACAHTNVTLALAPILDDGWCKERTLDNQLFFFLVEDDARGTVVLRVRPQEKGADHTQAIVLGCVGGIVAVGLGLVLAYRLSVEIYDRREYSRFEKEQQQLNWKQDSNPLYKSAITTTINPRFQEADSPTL

Numbered stars: 1 amine (or outer) side, 2 acyl side, 3 side chain; on linkers, the order of the positions; unused ones are H or OH. Bridge positions count the residues as written; N and C are the ends. Square brackets hold non-standard residues; d marks the D form. Peptide text beside a SMILES is read from it. I, II: the chains in the order shown. Phe(4-tBu) = CC(C)(C)c1ccc(C[C@H](N)C(=O)O)cc1; 2Nal = N[C@@H](Cc1ccc2ccccc2c1)C(=O)O; Diglycolyl = O=C(COCC(=O)[*:2])[*:1]; NMeR = CN[C@@H](CCCNC(=N)N)C(=O)O; β3hE = N[C@@H](CCC(=O)O)CC(=O)O; NMeK = CN[C@@H](CCCCN)C(=O)O; Pen = CC(C)(S)[C@H](N)C(=O)O; dNMeK = CN[C@H](CCCCN)C(=O)O

T1 sequence (P13612 34-977 limits assumed, stated change not applied): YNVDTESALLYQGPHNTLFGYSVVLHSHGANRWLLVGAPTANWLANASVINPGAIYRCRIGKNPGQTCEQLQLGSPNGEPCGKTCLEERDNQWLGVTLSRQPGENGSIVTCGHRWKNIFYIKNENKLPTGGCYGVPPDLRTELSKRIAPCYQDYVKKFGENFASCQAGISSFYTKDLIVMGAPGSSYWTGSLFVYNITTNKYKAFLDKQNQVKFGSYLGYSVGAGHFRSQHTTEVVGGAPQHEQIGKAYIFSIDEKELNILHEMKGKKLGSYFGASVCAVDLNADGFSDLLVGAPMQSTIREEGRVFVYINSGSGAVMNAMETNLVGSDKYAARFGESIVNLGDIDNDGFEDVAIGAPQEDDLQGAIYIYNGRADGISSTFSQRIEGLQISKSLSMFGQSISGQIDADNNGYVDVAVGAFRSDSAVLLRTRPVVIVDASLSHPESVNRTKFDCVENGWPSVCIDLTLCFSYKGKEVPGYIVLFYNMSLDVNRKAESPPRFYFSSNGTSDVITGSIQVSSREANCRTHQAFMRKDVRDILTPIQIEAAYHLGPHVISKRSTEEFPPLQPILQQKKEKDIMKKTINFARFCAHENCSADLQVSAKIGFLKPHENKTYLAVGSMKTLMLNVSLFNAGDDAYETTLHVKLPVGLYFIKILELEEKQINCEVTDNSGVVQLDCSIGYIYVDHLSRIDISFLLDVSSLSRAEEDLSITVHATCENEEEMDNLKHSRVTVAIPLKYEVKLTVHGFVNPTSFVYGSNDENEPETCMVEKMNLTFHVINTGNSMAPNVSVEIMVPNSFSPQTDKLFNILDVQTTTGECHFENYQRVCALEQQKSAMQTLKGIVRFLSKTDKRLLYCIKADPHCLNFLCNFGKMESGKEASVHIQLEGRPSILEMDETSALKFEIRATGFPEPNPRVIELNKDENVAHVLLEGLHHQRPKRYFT
T1 sequence (P05556 21-728 limits assumed, stated change not applied): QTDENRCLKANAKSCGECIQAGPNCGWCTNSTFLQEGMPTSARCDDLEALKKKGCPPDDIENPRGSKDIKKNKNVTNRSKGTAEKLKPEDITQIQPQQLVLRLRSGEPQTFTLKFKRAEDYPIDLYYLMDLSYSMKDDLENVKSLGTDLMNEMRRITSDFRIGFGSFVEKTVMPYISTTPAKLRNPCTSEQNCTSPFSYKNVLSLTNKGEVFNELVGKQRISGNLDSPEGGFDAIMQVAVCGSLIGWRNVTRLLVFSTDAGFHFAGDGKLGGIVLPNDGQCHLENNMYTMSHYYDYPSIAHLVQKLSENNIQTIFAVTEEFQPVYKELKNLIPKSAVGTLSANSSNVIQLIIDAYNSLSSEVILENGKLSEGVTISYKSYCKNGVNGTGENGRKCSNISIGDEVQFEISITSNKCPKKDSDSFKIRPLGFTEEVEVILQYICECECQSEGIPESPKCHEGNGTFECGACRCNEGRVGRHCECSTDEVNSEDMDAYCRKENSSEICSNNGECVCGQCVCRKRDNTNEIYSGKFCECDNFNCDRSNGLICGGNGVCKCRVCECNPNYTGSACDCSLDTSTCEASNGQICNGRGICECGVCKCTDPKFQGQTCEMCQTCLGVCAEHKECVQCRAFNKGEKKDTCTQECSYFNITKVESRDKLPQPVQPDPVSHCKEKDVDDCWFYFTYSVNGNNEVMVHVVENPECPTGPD

As to `CC(=O)N[C@@H]1C(=O)N(C)[C@@H](CCCNC(=N)N)C(=O)N[C@@H](CO)C(=O)N[C@@H](CC(=O)O)C(=O)N[C@@H]([C@@H](C)O)C(=O)N[C@@H](CC(C)C)C(=O)N[C@H](C(=O)N[C@@H](Cc2ccc3ccccc3c2)C(=O)N[C@@H](CCC(=O)O)C(=O)N[C@H](CCCCNC(=O)COCC(=O)NCCCC[C@@H](NC(=O)[C@H](CCC(=O)O)NC(=O)[C@H](Cc2ccc3ccccc3c2)NC(=O)[C@H]2NC(=O)[C@H](CC(C)C)NC(=O)[C@H]([C@@H](C)O)NC(=O)[C@H](CC(=O)O)NC(=O)[C@H](CO)NC(=O)[C@H](CCCNC(=N)N)N(C)C(=O)[C@@H](NC(C)=O)C(C)(C)SSC2(C)C)C(N)=O)C(N)=O)C(C)(C)SSC1(C)C` [compound 212, (Ac-Pen-N-Me-R-S-D-T-L-Pen-2-Nal-E-k-NH2)2-DIG] (I: Ac-[Pen][NMeR]SDTL[Pen][2Nal]E[dK]-NH2 / II: Ac-[Pen][NMeR]SDTL[Pen][2Nal]E[dK]-NH2; disulfide I:1-I:7, II:1-II:7 (inferred); linker I:10-II:10 via Diglycolyl (inferred)), the IC50 on α4β1 is 70 nM; at α4β7 it was 2.5 nM. For the same compound, the half-life at 22 μM in series [1] is 1.5 h.
As for `CC(=O)N[C@@H]1C(=O)N(C)[C@@H](CCCNC(=N)N)C(=O)N[C@@H](CO)C(=O)N[C@@H](CC(=O)O)C(=O)N[C@@H]([C@@H](C)O)C(=O)N[C@@H](CC(C)C)C(=O)N[C@H](C(=O)N[C@@H](Cc2c[nH]c3ccccc23)C(=O)N[C@@H](CCC(=O)O)CC(=O)N[C@H](CCCCNC(=O)COCC(=O)NCCCC[C@@H](NC(=O)C[C@H](CCC(=O)O)NC(=O)[C@H](Cc2c[nH]c3ccccc23)NC(=O)[C@H]2NC(=O)[C@H](CC(C)C)NC(=O)[C@H]([C@@H](C)O)NC(=O)[C@H](CC(=O)O)NC(=O)[C@H](CO)NC(=O)[C@H](CCCNC(=N)N)N(C)C(=O)[C@@H](NC(C)=O)C(C)(C)SSC2(C)C)C(N)=O)C(N)=O)C(C)(C)SSC1(C)C` [compound 213, [Ac-Pen-(N-Me-Arg)-Ser-Asp-Thr-Leu-Pen-Trp-(β-homoGlu)-(D-Lys)-NH2]2-DIG] (I: Ac-[Pen][NMeR]SDTL[Pen]W[β3hE][dK]-NH2 / II: Ac-[Pen][NMeR]SDTL[Pen]W[β3hE][dK]-NH2; disulfide I:1-I:7, II:1-II:7; linker I:10-II:10 via Diglycolyl), the results for the IC50 at α4β1 and on α4β7 were 539 nM and 12 nM, respectively. In addition, the half-life at 22 μM in series [1] was above 3 h.
In the case of `CC(=O)N[C@@H]1C(=O)N(C)[C@@H](CCCNC(=N)N)C(=O)N[C@@H](CO)C(=O)N[C@@H](CC(=O)O)C(=O)N[C@@H]([C@@H](C)O)C(=O)N[C@@H](CC(C)C)C(=O)N[C@H](C(=O)N[C@@H](Cc2c[nH]c3ccccc23)C(=O)N[C@@H](CCC(=O)O)C(=O)N(C)[C@H](CCCCNC(=O)COCC(=O)NCCCC[C@H](C(N)=O)N(C)C(=O)[C@H](CCC(=O)O)NC(=O)[C@H](Cc2c[nH]c3ccccc23)NC(=O)[C@H]2NC(=O)[C@H](CC(C)C)NC(=O)[C@H]([C@@H](C)O)NC(=O)[C@H](CC(=O)O)NC(=O)[C@H](CO)NC(=O)[C@H](CCCNC(=N)N)N(C)C(=O)[C@@H](NC(C)=O)C(C)(C)SSC2(C)C)C(N)=O)C(C)(C)SSC1(C)C` [compound 214, [Ac-Pen-(N-Me-Arg)-Ser-Asp-Thr-Leu-Pen-Trp-Glu-(N-Me-D-Lys)-NH2]2-DIG] (I: Ac-[Pen][NMeR]SDTL[Pen]WE[dNMeK]-NH2 / II: Ac-[Pen][NMeR]SDTL[Pen]WE[dNMeK]-NH2; disulfide I:1-I:7, II:1-II:7 (inferred); linker I:10-II:10 via Diglycolyl (inferred)), the IC50 on α4β1 turned out to be 436 nM; at α4β7, 2.5 nM. For the same compound, the half-life at 22 μM in series [1] is above 13.5 h.
Regarding `CC(=O)N[C@@H]1C(=O)N(C)[C@@H](CCCNC(=N)N)C(=O)N[C@@H](CO)C(=O)N[C@@H](CC(=O)O)C(=O)N[C@@H]([C@@H](C)O)C(=O)N[C@@H](CC(C)C)C(=O)N[C@H](C(=O)N[C@@H](Cc2c[nH]c3ccccc23)C(=O)N[C@@H](CCC(=O)O)C(=O)N(C)[C@@H](CCCCNC(=O)COCC(=O)NCCCC[C@@H](C(N)=O)N(C)C(=O)[C@H](CCC(=O)O)NC(=O)[C@H](Cc2c[nH]c3ccccc23)NC(=O)[C@H]2NC(=O)[C@H](CC(C)C)NC(=O)[C@H]([C@@H](C)O)NC(=O)[C@H](CC(=O)O)NC(=O)[C@H](CO)NC(=O)[C@H](CCCNC(=N)N)N(C)C(=O)[C@@H](NC(C)=O)C(C)(C)SSC2(C)C)C(N)=O)C(C)(C)SSC1(C)C` [compound 215, [Ac-Pen-(N-Me-Arg)-Ser-Asp-Thr-Leu-Pen-Trp-Glu-(N-Me-Lys)-NH2]2-DIG] (I: Ac-[Pen][NMeR]SDTL[Pen]WE[NMeK]-NH2 / II: Ac-[Pen][NMeR]SDTL[Pen]WE[NMeK]-NH2; disulfide I:1-I:7, II:1-II:7 (inferred); linker I:10-II:10 via Diglycolyl (inferred)), the IC50 turned out to be 270 nM at α4β1 and 3 nM on α4β7. In series [1], the half-life at 22 μM was above 6 h.
Turning to `CC(=O)N[C@@H]1C(=O)N(C)[C@@H](CCCNC(=N)N)C(=O)N[C@@H](CO)C(=O)N[C@@H](CC(=O)O)C(=O)N[C@@H]([C@@H](C)O)C(=O)N[C@@H](CC(C)C)C(=O)N[C@H](C(=O)N[C@@H](Cc2c[nH]c3ccccc23)C(=O)N[C@H](CCC(=O)O)C(=O)N[C@H](CCCCNC(=O)COCC(=O)NCCCC[C@@H](NC(=O)[C@@H](CCC(=O)O)NC(=O)[C@H](Cc2c[nH]c3ccccc23)NC(=O)[C@H]2NC(=O)[C@H](CC(C)C)NC(=O)[C@H]([C@@H](C)O)NC(=O)[C@H](CC(=O)O)NC(=O)[C@H](CO)NC(=O)[C@H](CCCNC(=N)N)N(C)C(=O)[C@@H](NC(C)=O)C(C)(C)SSC2(C)C)C(=O)O)C(=O)O)C(C)(C)SSC1(C)C` [compound 216, (Ac-Pen-N-Me-R-S-D-T-L-Pen-W-e-k-OH)2-DIG] (I: Ac-[Pen][NMeR]SDTL[Pen]W[dE][dK]-OH / II: Ac-[Pen][NMeR]SDTL[Pen]W[dE][dK]-OH; disulfide I:1-I:7, II:1-II:7 (inferred); linker I:10-II:10 via Diglycolyl (inferred)), the IC50 stood at 247 nM on α4β1 and 4.2 nM on α4β7. For the same compound, the half-life at 22 μM in series [1] is above 3 h.
`CC(=O)N[C@@H]1C(=O)N(C)[C@@H](CCCNC(=N)N)C(=O)N[C@@H](CO)C(=O)N[C@@H](CC(=O)O)C(=O)N[C@@H]([C@@H](C)O)C(=O)N[C@@H](CC(C)C)C(=O)N[C@H](C(=O)N[C@@H](Cc2c[nH]c3ccccc23)C(=O)N[C@@H](CCC(=O)O)C(=O)N[C@H](CCCCNC(=O)COCC(=O)NCCCC[C@@H](NC(=O)[C@H](CCC(=O)O)NC(=O)[C@H](Cc2c[nH]c3ccccc23)NC(=O)[C@H]2NC(=O)[C@H](CC(C)C)NC(=O)[C@H]([C@@H](C)O)NC(=O)[C@H](CC(=O)O)NC(=O)[C@H](CO)NC(=O)[C@H](CCCNC(=N)N)N(C)C(=O)[C@@H](NC(C)=O)C(C)(C)SSC2(C)C)C(N)=O)C(N)=O)C(C)(C)SSC1(C)C` [compound 217, (Ac-Pen-N-Me-R-S-D-T-L-Pen-W-E-k-NH2)2-DIG] (I: Ac-[Pen][NMeR]SDTL[Pen]WE[dK]-NH2 / II: Ac-[Pen][NMeR]SDTL[Pen]WE[dK]-NH2; disulfide I:1-I:7, II:1-II:7 (inferred); linker I:10-II:10 via Diglycolyl (inferred)): the IC50 on α4β1 came to 315 nM; on α4β7, 3.2 nM. Also, the half-life at 22 μM in series [1] is 2.02 h.
Take `CC(=O)N[C@@H]1C(=O)N(C)[C@@H](CCCNC(=N)N)C(=O)N[C@@H](CO)C(=O)N[C@@H](CC(=O)O)C(=O)N[C@@H]([C@@H](C)O)C(=O)N[C@@H](CC(C)C)C(=O)N[C@H](C(=O)N[C@@H](Cc2ccc(C(C)(C)C)cc2)C(=O)N[C@@H](CCC(=O)O)CC(=O)N[C@H](CCCCNC(=O)COCC(=O)NCCCC[C@@H](NC(=O)C[C@H](CCC(=O)O)NC(=O)[C@H](Cc2ccc(C(C)(C)C)cc2)NC(=O)[C@H]2NC(=O)[C@H](CC(C)C)NC(=O)[C@H]([C@@H](C)O)NC(=O)[C@H](CC(=O)O)NC(=O)[C@H](CO)NC(=O)[C@H](CCCNC(=N)N)N(C)C(=O)[C@@H](NC(C)=O)C(C)(C)SSC2(C)C)C(N)=O)C(N)=O)C(C)(C)SSC1(C)C` [compound 218, [Ac-Pen-(N-Me-Arg)-Ser-Asp-Thr-Leu-Pen-Phe(4-tBu)-(β-homoGlu)-(D-Lys)-NH2]2-DIG] (I: Ac-[Pen][NMeR]SDTL[Pen][Phe(4-tBu)][β3hE][dK]-NH2 / II: Ac-[Pen][NMeR]SDTL[Pen][Phe(4-tBu)][β3hE][dK]-NH2; disulfide I:1-I:7, II:1-II:7; linker I:10-II:10 via Diglycolyl): the IC50 at α4β1 is 490 nM; on α4β7 it was 0.78 nM. Moreover, the “SIF (porcine), printed in hr in the cell” value in series [1] (Table 4-C) is 11 h.

(Values after patent publication US9809623B2, “α4β7 peptide monomer and dimer antagonists” (Protagonist Therapeutics, Inc., priority 2014, dated 2017).)
